One experiment relates to IEC-6 cells. Kind of experiment: Camptothecin-induced DNA fragmentation (apoptosis) in IEC-6 cells, ELISA. It is filed as cell-based. The following applies: Camptothecin 20 μM, LPA and FAP12 at 10 μM. As to the method: The experimental procedure utilized was substantially the same as that reported in Deng et al. (2002) and Deng et al., (2003).
Basically, IEC-6 cells were grown in DMEM medium supplemented with 5% fetal bovine serum, insulin (10 μg/ml), gentamycin sulfate (50 μg/ml), and incubated at 37° C. in a humidified 90% air–10% CO2 atmosphere. Medium was changed every other day. Sub-confluent cells were washed twice and replaced by DMEM without serum the night before experiments.
Damage and IEC-6 cell apoptosis was induced via either γ-irradiation or chemotherapy. 20 Gy single dose of [^137Cs] source γ-irradiation was used in all experiments. […] In some experiments, LPA was added at different times before or after irradiation. Treatment with 20 μM camptothecin of IEC-6 cells induces DNA fragmentation as measured by the ELISA assay at 16 h after treatment. DNA fragmentation was quantified using the Cell Death Detection ELISA kit from Boehringer (Indianapolis, Ind.) according to the instructions of the manufacturer. Samples were run in triplicate. A duplicate of the sample was used to quantify protein concentration using the BCA kit from Pierce (Rockford, Ill.). DNA fragmentation was expressed as absorbance units per μg protein per minute.
(In general: An ELISA detects its analyte on a solid surface through an enzyme-linked reagent.)

Experiment [1] addresses T1, LPA1 (Homo sapiens, UniProt Q92633).
T1 construct: expressed in transfected cells
The following applies: RH7777 cells expressing LPA1; previously reported in Virag et al. (2003); cited from earlier work.

Experiment [2] concerns the target T2, LPA3 (Homo sapiens, UniProt Q9UBY5).
T2 construct: expressed in transfected cells
T2 sequence (Q9UBY5 1-353): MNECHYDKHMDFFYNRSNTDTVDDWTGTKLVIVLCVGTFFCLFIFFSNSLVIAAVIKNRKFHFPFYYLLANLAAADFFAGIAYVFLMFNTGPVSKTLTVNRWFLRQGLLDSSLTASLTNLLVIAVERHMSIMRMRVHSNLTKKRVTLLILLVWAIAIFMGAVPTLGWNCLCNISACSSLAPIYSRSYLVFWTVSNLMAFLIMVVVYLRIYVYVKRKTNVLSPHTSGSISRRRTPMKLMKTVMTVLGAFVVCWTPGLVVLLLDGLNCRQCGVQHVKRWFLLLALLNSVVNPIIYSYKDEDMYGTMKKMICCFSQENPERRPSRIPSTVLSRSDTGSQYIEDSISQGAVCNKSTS
The following applies: RH7777 cells expressing LPA3; previously reported in Virag et al. (2003); cited from earlier work.

The target of experiment [3] is T3, LPA2 (Homo sapiens, UniProt Q9HBW0).
T3 construct: expressed in transfected cells
T3 sequence (Q9HBW0 whole entry): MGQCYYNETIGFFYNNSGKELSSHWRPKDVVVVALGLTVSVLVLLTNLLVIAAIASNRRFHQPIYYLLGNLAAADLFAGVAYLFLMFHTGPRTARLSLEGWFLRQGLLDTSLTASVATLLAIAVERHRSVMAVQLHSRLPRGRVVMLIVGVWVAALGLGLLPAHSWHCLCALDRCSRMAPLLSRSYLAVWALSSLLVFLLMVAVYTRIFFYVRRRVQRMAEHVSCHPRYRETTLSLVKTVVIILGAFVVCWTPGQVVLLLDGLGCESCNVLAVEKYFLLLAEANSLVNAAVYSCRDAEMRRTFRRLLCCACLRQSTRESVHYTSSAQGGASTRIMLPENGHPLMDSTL
The following applies: previously reported in Virag et al. (2003), cited from earlier work.

In a further experiment the target is T4, PPARγ (Homo sapiens, UniProt P37231).
T4 sequence (P37231 1-505): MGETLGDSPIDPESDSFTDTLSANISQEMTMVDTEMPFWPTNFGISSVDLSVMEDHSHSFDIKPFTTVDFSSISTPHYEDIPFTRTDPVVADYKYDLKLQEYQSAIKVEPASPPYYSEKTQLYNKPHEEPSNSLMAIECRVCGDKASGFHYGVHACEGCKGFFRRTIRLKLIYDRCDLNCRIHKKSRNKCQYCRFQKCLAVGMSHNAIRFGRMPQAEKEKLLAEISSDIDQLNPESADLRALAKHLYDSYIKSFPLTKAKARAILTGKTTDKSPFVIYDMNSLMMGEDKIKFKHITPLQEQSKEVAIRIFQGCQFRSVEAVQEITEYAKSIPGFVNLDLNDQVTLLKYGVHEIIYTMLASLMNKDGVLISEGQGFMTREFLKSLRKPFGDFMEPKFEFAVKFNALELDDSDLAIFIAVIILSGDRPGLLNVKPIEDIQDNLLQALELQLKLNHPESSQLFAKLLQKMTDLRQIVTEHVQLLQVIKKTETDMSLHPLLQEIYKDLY
Kind of experiment: PPARγ activation in CV1 cells, PPRE-Acox-Rluc reporter gene assay. The following applies: 10 μM test compound, 20 h. (A reporter such as luciferase makes a cellular process visible.)

In the next experiment the test system is PC-3 cells. Kind of experiment: Ca2+ transients in PC-3 cells endogenously expressing LPA1-3. The following applies: for effect in PC-3 cells in words: Ca2+ transients. In kind it is cell-based, human. The protocol:
(§1) The culture medium (DMEM containing 10% FBS) was then replaced with modified Krebs solution (120 mM NaCl, 5 mM KCl, 0.62 mM MgSO4, 1.8 mM CaCl2, 10 mM HEPES, 6 mM glucose, pH 7.4) and the cells were serum starved for 6–8 hours (12 h for PC-3 cells). Cells were loaded with Fura-2 AM for 35 minutes in modified Krebs medium. The Fura-2 was removed before loading the plate in the FlexStation instrument by replacing the medium once again with 100 μl modified Krebs medium/well. Plates were incubated for 4 minutes in the instrument to allow for warming to 37° C. Changes in intracellular Ca^2+ concentration were monitored by measuring the ratio of emitted light intensity at 520 nm in response to excitation by 340 nm and 380 nm wavelength lights, respectively. Each well was monitored for 80–120 seconds. […] Time courses were recorded using the SoftMax Pro software (Molecular Devices, Sunnyvale, Calif.). Ca^2+ transients were quantified automatically by calculating the difference between maximum and baseline ratio values for each well.
We tested the FAP analogs in PC-3 cells, which unlike the transfected RH7777 cells endogenously express LPA1-3 receptors.

The subject of the next experiment is γ-irradiated mice. Kind of experiment: Crypt survival in small intestine after whole body γ-irradiation. It is filed as in vivo. The following applies: 200 μM into the stomach 2 h prior irradiation, crypts counted 3.5 days after irradiation. The protocol: The experimental procedure utilized was substantially the same as that reported in Deng et al. (2002).
The whole body irradiation (WBI) protocol has been reviewed and approved by the ACUC Committee of the University of Tennessee Health Sciences Center. ICR strain male mice (Harlan Laboratories, body weight 30–33 g) on a 12 h light/dark cycle and otherwise maintained on a standard laboratory chow ad libitum were starved for 16 h prior to treatment. WBI was done with a 12 Gy or 15 Gy dose using Cs137 source at a dose rate of 1.9 Gy per minute. Groups of four mice received either 250 μl of 1 mM LPA complexed with 100 μM BSA dissolved in Hanks basal salt solution or the BSA vehicle alone 2 h prior to irradiation.
For detection of the apoptotic bodies, mice were euthanized with carbon dioxide inhalation 4 h after irradiation and the small intestine was dissected and fixed in neutral phosphate buffered isotonic 10% formalin. Four ˜3- to 4-mm long segments from the small intestine were embedded in paraffin, 5 μm thick sections were cut and stained with hematoxilin and eosin. The number of surviving crypts was counted 3.5 days after irradiation.

Experiment [4] addresses T2, LPA3. Kind of experiment: Ca2+ transients (agonism / inhibition of LPA response) in RH7777 cells stably expressing LPA3. It is filed as cell-based. The following applies: for effect at LPA3 in words: Ca2+ transients. The protocol:
as §1
(§2) Each FAP analog was tested for the ability to induce Ca^2+ transients in RH7777 cells transfected with LPA1-3 receptors (agonism), as well as the ability to inhibit LPAinduced Ca^2+ transients in the same cells (antagonism) (Table 3).

The target in experiment [5] is T3, LPA2. Kind of experiment: Ca2+ transients (agonism / inhibition of LPA response) in RH7777 cells stably expressing LPA2. In kind it is cell-based. As to the method:
as §1, §2

Experiment [6] concerns the target T1, LPA1. Kind of experiment: Ca2+ transients (agonism / inhibition of LPA response) in RH7777 cells stably expressing LPA1. It is filed as cell-based. As to conditions: for effect at LPA1 in words: Ca2+ transients. The protocol: as §1, §2
Where [7] appears, read: Homo sapiens, PC-3, read-out: PC-3 (Emax).

Entries after “also recorded” stand apart in the source; their conditions may differ. Like-named read-outs stand apart in the source and are kept apart here.

T1 sequence (Q92633 whole entry): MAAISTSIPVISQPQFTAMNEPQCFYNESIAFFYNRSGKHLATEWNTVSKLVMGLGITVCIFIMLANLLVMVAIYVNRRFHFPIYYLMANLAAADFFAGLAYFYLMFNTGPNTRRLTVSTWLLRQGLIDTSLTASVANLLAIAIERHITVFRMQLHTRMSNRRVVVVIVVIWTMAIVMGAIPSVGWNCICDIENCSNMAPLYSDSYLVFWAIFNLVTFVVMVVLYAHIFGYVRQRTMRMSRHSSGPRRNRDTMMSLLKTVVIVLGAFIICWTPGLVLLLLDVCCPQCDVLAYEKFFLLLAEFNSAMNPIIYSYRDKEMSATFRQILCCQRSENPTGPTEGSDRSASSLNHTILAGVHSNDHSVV
Method for PPARγ: Comparing the effects with the Rosiglitazone, a known PPARγ agonist, CV1 cells were treated with 1% DMSO or 10 μM of test compound dissolved in DMSO for 20 h. Luciferase and β-galactosidase activities (mean±SEM) were measured in the cell lysate (n=4). *P<0.05 and **P<0.01, significant differences over vehicle control.
The assay of PPARγ activation in CV1 cells was run as reported in Zhang et al. Briefly, CV-1 cells were plated in 96-well plates (5×10^3 cells per well) in Dulbecco's modified Eagle's medium supplemented with 10% fetal bovine serum. […] Samples were run in quadruplicate and the mean±standard errors were calculated. Data are representative of at least two independent transfections. Student's t-test was used for null hypothesis testing and P<0.05 was considered transfection, cells were treated with 1% FBS supplemented OptiMEMI (Invitrogen) containing DMSO or 10 μM test compound dissolved in DMSO for 20 h. Luciferase and β-galactosidase activities were measured with the Steady-Glo® Luciferase Assay significant (in the figures P<0.05 is denoted by * and P<0.01 is **).

In general, EC50 refers to the concentration at which the effect is half-maximal. In general, IC50 refers to the concentration at which inhibition is half-maximal. A word on the Ki: it is the equilibrium dissociation constant of an inhibitor or competing ligand from its target. For `CCCCCCCCCCCCOP(=O)(O)O` [Compound 2b], in the experiment on IEC-6 cells, the “inhibition of Camptothecin-induced DNA fragmentation in words” value (“inhibition” below) was “inhibited”. Also, the EC50 at LPA1 [1] was above 30 µM. Further, at LPA3 [2], the EC50 was above 30 µM, the IC50 was 0.128 µM and the Ki was 0.061 µM. For the same molecule, the IC50 on LPA2 [3] (RH7777 cells expressing LPA2) is above 30 µM. The “LPA2 (Emax)” value at LPA2 [3] (relative to LPA 18:1) is 50%.

As for `CCCCCCCCCCOP(=O)(O)O` [Compound 2a], the concentration giving a half-maximal response (EC50) on LPA1 [1] and on LPA3 [2] was above 30 µM each time. Further, the concentration for half-maximal inhibition (IC50) on LPA1 [1] and at LPA2 [3] (RH7777 cells expressing LPA2) was above 30 µM throughout.

Regarding `CCCCCCCCCCCCCCOP(=O)(O)O` [Compound 2c], the EC50 at LPA1 [1], at LPA3 [2] and on LPA2 [3] (RH7777 cells expressing LPA2) was above 30 µM throughout. The IC50 at LPA2 [3] (RH7777 cells expressing LPA2) was above 30 µM.

Consider `CCCCCCCC/C=C\CCCCCCCC(=O)OC[C@@H](COP(O)(O)=S)OC` [OMPT], for which the “PPARγ activation (PPRE-Acox-Rluc reporter) in words” value at PPARγ is listed as “can activate PPRE-Acox-Rluc reporter”.

By Emax is commonly meant the greatest response seen or fitted, relative to the assay's reference. For `CCCCCCCCC=CCCCCCCCCOP(O)(O)=S` [Compound 8g, Thiophosphoric acid O-octadec-9-enyl ester], in the experiment on PC-3 cells (PC-3 cells), the “effect in PC-3 cells in words” value was “no inhibition of LPA response”. For the same molecule, the Emax worked out at 30% with PC-3 cells (setting [7]) and 80% on LPA1 [6] (RH7777, read-out: LPA1 (Emax)). Also, the “crypt survival in words” value was “enhances crypt survival” with γ-irradiated mice; “dose-dependent enhancement of crypt survival” in the experiment on γ-irradiated mice (listed as FAP 18:1 d9); “significantly (P>0.01) enhanced crypt survival; also recorded: present in the jejunum and ileum and exceeded that of LPA; also recorded: dose-dependent crypt survival in the ileum and jejunum” in the experiment on γ-irradiated mice (listed as FAP 18:1d9). In addition, the “inhibition” value in the experiment with IEC-6 cells was “comparable to that of LPA but supersedes it at concentrations above 3 μM; also recorded: dose-dependently inhibit DNA fragmentation”. The 50% effective concentration (EC50) on LPA3 [4] was determined as 0.546 µM; at LPA2 [5], 0.244 µM; at LPA1 [6], 0.193 µM. Moreover, the half-maximal inhibitory concentration (IC50) against LPA3 [4], at LPA2 [5] and against LPA1 [6] was above 30 µM throughout. Also, the “effect at LPA3 in words” value on LPA3 [4] (RH7777 cells expressing LPA3) is “agonist”. Moreover, at LPA2 [5] (Ca2+ transients, RH7777 cells expressing LPA2), the “effect at LPA2 in words” value was “agonist”. Besides, the “effect at LPA1 in words” value on LPA1 [6] (RH7777 cells expressing LPA1) is listed as “agonist”. The “LPA1 (Emax)” value at LPA1 [6] (maximal efficacy of the drug/maximal efficacy of LPA 18:1) was determined as 80%.

lysophosphatidic acid [LPA]: in the experiment on IEC-6 cells, the “inhibition” value is “inhibited; also recorded: dose-dependently inhibit DNA fragmentation”.

For the molecule `CCCCC=CCCCCCCCCOP(O)(O)=S` [Compound 8f, Thiophosphoric acid O-tetradec-9-enyl ester], the “effect in PC-3 cells in words” value with PC-3 cells (PC-3 cells) was “both independent activation and inhibition of LPA-induced Ca^2+ transients”. Moreover, the maximal response (Emax) with PC-3 cells (setting [7]) was found to be 40%; at LPA2 [5] (RH7777, read-out: LPA2 (Emax)), 150%. Besides, the half-maximal inhibitory concentration (IC50) in the experiment on PC-3 cells (Homo sapiens, PC-3, read-out: PC-3 IC50) was 0.938 µM; on LPA3 [4] it was 0.028 µM; on LPA2 [5], above 30 µM; at LPA1 [6] it was above 30 µM. The inhibitory constant (Ki) with PC-3 cells (inhibition of LPA-induced Ca2+ transients, PC-3 cells) is 0.397 µM; on LPA3 [4] it was 0.014 µM. In addition, the concentration giving a half-maximal response (EC50) on LPA3 [4] is above 30 µM; at LPA2 [5], 0.48 µM; at LPA1 [6], above 30 µM. At LPA1 [6] (RH7777 cells expressing LPA1), the “effect at LPA1 in words” value is “no effect on the LPA-induced Ca^2+ mobilization”.

Consider `CCCCCCCCC=CCCCCCCCCOP(=O)(O)O` [Compound 5f, Phosphoric acid monooctadec-9-enyl ester], for which, in the experiment with PC-3 cells (Homo sapiens, PC-3, maximal efficacy of the drug/maximal efficacy of LPA 18:1, read-out: PC-3 (Emax)), the Emax was found to be 11%. For the same molecule, the “effect at LPA3 in words” value at LPA3 [4] (RH7777 cells expressing LPA3) is on record as “did not inhibit nor did it activate Ca^2+ mobilization; also recorded: potentiated LPA response”. Also, the EC50 was above 30 µM on LPA3 [4] (induction of Ca2+ transients, RH7777 cells expressing LPA3, read-out: LPA3 EC50); above 30 µM on LPA2 [5] (induction of Ca2+ transients, RH7777 cells expressing LPA2, read-out: LPA2 EC50); above 30 µM at LPA1 [6] (induction of Ca2+ transients, RH7777 cells expressing LPA1, read-out: LPA1 EC50). For the same molecule, the 50% inhibitory concentration (IC50) is above 30 µM at LPA3 [4] (inhibition of LPA-induced Ca2+ transients, RH7777 cells expressing LPA3, read-out: LPA3 IC50); above 30 µM on LPA2 [5] (inhibition of LPA-induced Ca2+ transients, RH7777 cells expressing LPA2, read-out: LPA2 IC50); above 30 µM on LPA1 [6] (inhibition of LPA-induced Ca2+ transients, RH7777 cells expressing LPA1, read-out: LPA1 IC50). Moreover, the “effect at LPA1 in words” value at LPA1 [6] (RH7777 cells expressing LPA1) is “did not inhibit nor did it activate Ca^2+ mobilization; also recorded: potentiated LPA response”.
